Measured values taken from article PMC8498988, “Scaffold Hybridization Strategy Leads to the Discovery of Dopamine D3 Receptor-Selective or Multitarget Bitopic Ligands Potentially Useful for Central Nervous System Disorders” (ACS Chemical Neuroscience, 2021).

Experiments:
human D1R = molecular target: T1, human D1R (Homo sapiens, UniProt P21728); assay: Radioligand binding assay at human D1R ([3H]SCH23390, mouse fibroblast LhD1 cells); details: [3H]SCH23390, mouse fibroblast cells expressing hD1R; read-out: Ki ± SEM, D1R
T1 construct: expressed in transfected cells; host or cells: mouse fibroblast cells (LhD1)
Protocol: Mouse fibroblast cells expressing the human D1R at high density (LhD1 cells) are used. The cells are grown to confluence in DMEM containing 10% FetalClone1 serum (FCS, HyClone), 0.05% penicillin–streptomycin (pen-strep), and 400 μg/mL of Geneticin (G418). Three confluent 150 mm plates yield enough membranes for three assay plates with ∼10–15 μg protein per well. The cells from three 150 mm plates are scraped and centrifuged at 500×g for 5 min. The pellet is overlaid with 2 mL assay buffer (50 mM Tris–HCl containing 120 mM NaCl, 5 mM KCl, 2 mM CaCl2, and 1 mM MgCl2) and frozen at −70 °C. On the day of experiment, the pellet is homogenized in 30 mL assay buffer with a polytron. Cell homogenate (100 μL) is added to wells containing 800 μL of test drug or buffer. After a 10 min preincubation, 100 μL of [^3H]SCH-23390 (0.18 nM final concentration) is added. The plates are incubated at 25 C for 60 min. The reaction is terminated by filtration using a Tomtec 96 well harvester, and the radioactivity on the filters is determined using a PerkinElmer microbeta scintillation counter. Nonspecific binding is determined with 1 μM SCH-23390.

5-HT2CR = molecular target: T2, 5-HT2CR (Homo sapiens, UniProt P28335); assay: 5-HT2C IP-1 formation (HEK-h5HT2C cells); details: for % stimul., 5-HT2C IP-1 formation: agonist mode, normalized to the maximal stimulation by serotonin; for functional behavior at 5-HT2CR: in words
T2 sequence (P28335 33-458): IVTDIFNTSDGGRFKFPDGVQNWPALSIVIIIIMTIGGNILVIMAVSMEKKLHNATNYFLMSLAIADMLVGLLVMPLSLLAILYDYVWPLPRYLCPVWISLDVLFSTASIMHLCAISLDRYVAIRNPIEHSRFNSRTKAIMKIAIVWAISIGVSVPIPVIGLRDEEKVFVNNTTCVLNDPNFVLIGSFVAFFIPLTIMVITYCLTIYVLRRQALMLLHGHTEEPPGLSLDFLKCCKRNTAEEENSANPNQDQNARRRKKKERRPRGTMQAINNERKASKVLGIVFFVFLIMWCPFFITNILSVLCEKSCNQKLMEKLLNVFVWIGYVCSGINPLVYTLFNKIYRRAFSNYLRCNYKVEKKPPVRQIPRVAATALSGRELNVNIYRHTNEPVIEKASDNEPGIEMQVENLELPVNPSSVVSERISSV
Protocol: HEK-h5HT2A or HEK-h5HT2C cells are used as the tissue source. The day before the experiment, cells are plated in 24-well plates at a density of 400,000 cells per well using DMEM supplemented with charcoal-stripped FetalClone. Drugs are made up in stimulation buffer supplied in the kit. Medium is removed from the well, test compounds or serotonin or antagonist or buffer is added, and the cells are incubated for 1 h. The cells are lysed for 30 min, and 50 μL of cell lysate is added to the IP-1 plates. After the addition of appropriate antibodies, the plates are incubated for 3 h, washed six times, incubated with the substrate for 20 min, and, after termination of the reaction, the plate is read on a plate reader at 450 nm with a correction at 620 nm.

D4R = molecular target: T3, D4R (Homo sapiens, UniProt P21917); assay: D4 adenylate cyclase/cAMP functional assay (HEK-D4.4-AC1 cells); assay type: cell-based; design: expressed in transfected cells; host or cells: HEK-D4.4-AC1 cells; details: for EC50 / % stimul., D4 adenylate cyclase: agonist mode; for EC50: inhibition of forskolin-stimulated cAMP formation; for % stimul., D4 adenylate cyclase: normalized to maximal effect of quinpirole; for functional behavior at D4R: in words
T3 sequence (P21917 1-419): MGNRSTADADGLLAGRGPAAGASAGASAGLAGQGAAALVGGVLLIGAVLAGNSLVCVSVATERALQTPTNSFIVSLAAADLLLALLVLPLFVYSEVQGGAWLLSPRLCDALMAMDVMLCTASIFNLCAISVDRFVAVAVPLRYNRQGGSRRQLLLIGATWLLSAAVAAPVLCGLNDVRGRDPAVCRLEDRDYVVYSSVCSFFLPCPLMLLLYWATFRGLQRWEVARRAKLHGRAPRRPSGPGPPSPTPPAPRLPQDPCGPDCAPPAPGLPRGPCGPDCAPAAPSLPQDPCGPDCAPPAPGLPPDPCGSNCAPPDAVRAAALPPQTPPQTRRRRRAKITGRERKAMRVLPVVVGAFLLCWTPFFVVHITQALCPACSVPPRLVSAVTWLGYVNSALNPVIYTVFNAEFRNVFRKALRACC
Protocol: HEK-D4.4-AC1 cells are grown to confluency on […]. The cells are plated at a density of 375,000 cells per well in 48-well plates in DMEM supplemented with 5% FetalClone, 5% BCS, and pen-strep. After ∼36 h, the medium is changed to DMEM supplemented with 10% charcoal-stripped FetalClone and pen-strep. The medium is removed ∼18 h later. For agonist assays, 0.8 mL of EBSS (116 mM NaCl, 22 mM glucose, 15 mM HEPES, 8.7 mM NaH2PO4, 5.4 mM KCl, 1.3 mM CaCl2, 1.2 mM MgSO4, 1 mM ascorbic acid, 0.5 mM IBMX [3-isobutyl-1-methyl-xanthine], and 2% BCS, pH 7.4 at 37 °C) is added, cells are incubated for 20 min, agonists are added, and, after a 20 min incubation, 10 μM of forskolin is added in a final volume of 1 mL. For antagonists, 0.7 mL of EBSS is added, cells are incubated for 10 min, antagonists are added, cells are incubated for 10 min, 2 nM quinpirole is added, and after a 20 min incubation, 10 μM forskolin is added in a final volume of 1 mL. For all conditions, after a 20 min incubation with forskolin, the reaction is terminated by aspiration of the buffer, and 0.1 mL of trichloroacetic acid is added. The plates are incubated for 2 h on a rotator. Adenylate cyclase activity is measured using a cyclic AMP EIA kit (Cayman). Aliquots (9 μL) of each well are diluted to 200 μL with EIA buffer from the kit, and 50 μL of dilution is added to the EIA plate. After addition of tracer and monoclonal antibody, the EIA plates are incubated for 18 h at 4 °C. The reaction is aspirated, the plates are washed with 5 × 300 μL wash buffer, and Ellman’s reagent is added. After a 2 hour incubation in the dark on a rotator, the plates are read at 410 nm. Basal cAMP is subtracted from all values. D4R agonists inhibit forskolin-stimulated cAMP formation, and maximal inhibition is defined with 1 μM quinpirole. Data normalized to percent forskolin stimulation are shown in the graph. The maximal effect is normalized to maximal effect of quinpirole in the tables. For antagonists, maximal reversal of inhibition of cAMP formation is defined with 10 μM haloperidol.

D3R = D3R (Homo sapiens, UniProt P35462); assay: Radioligand competition binding at human D3R ([3H]N-methylspiperone, HEK293 membranes); design: expressed in transfected cells; host or cells: HEK293; details: selectivity
Chain of D3R (P35462 whole entry): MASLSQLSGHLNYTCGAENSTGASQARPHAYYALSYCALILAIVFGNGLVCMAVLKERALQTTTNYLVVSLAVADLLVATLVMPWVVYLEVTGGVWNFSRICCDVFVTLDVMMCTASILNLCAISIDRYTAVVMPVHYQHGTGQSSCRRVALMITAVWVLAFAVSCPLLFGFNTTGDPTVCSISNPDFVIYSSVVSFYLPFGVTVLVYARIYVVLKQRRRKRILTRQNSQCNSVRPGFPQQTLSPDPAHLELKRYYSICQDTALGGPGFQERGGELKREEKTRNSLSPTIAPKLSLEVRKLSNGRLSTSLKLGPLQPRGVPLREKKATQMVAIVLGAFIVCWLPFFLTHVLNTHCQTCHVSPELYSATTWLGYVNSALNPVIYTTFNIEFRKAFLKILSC

T1 sequence (P21728 whole entry): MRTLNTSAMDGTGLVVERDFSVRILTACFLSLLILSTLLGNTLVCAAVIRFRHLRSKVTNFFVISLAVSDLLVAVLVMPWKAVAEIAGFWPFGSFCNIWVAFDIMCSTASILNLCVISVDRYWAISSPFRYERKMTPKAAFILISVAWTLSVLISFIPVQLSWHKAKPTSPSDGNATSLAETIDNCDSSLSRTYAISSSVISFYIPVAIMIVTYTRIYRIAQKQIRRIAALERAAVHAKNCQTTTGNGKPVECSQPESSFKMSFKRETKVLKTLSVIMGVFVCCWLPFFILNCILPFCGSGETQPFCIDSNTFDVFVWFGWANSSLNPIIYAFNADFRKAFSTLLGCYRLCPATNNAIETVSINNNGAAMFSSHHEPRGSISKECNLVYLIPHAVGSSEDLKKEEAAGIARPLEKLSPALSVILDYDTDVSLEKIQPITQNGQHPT

O=C(NCCCCN1CCN(c2cccc(Cl)c2Cl)CC1)C1COC(c2ccccc2)(c2ccccc2)CO1 (stereo not shown) [compound 6, N-(4-(4-(2,3-Dichlorophenyl)piperazin-1-yl)butyl)-5,5-diphenyl-1,4-dioxane-2-carboxamide]
Ki (human D1R): 700 ± 150 nM | EC50 (5-HT2CR): 380 ± 130 nM | % stimul., 5-HT2C IP-1 formation (5-HT2CR): 33% | functional behavior at 5-HT2CR (5-HT2CR): D3R and 5-HT2CR partial agonists with high and low potency, respectively | EC50 (D4R): 21.7 ± 8.4 nM | % stimul., D4 adenylate cyclase (D4R): 76.7% | functional behavior at D4R (D4R): efficacious 5-HT1AR and D4R agonists with high potency

O=C(NCCCCN1CCN(c2cccc(Cl)c2Cl)CC1)C1COCC(c2ccccc2)(c2ccccc2)O1 (stereo not shown) [compound 3, N-(4-(4-(2,3-Dichlorophenyl)piperazin-1-yl)butyl)-6,6-diphenyl-1,4-dioxane-2-carboxamide]
Ki (human D1R): 442 ± 52 nM | 5-HT1A/D3 (D3R; ratio of Ki values 5-HT1AR/D3R): 121 | 5-HT2A/D3 (D3R; ratio of Ki values 5-HT2AR/D3R): 108 | 5-HT2C/D3 (D3R; ratio of Ki values 5-HT2CR/D3R): 269 | D1/D3 (D3R; ratio of Ki values D1R/D3R): 185

O=C(NCCCCN1CCN(c2cccc(Cl)c2Cl)CC1)C1COc2ccccc2O1 (stereo not shown) [compound 9, N-(4-(4-(2,3-Dichlorophenyl)piperazin-1-yl)butyl)-2,3-dihydrobenzo[b][1,4]dioxine-2-carboxamide]
Ki (human D1R): 680 ± 160 nM | EC50 (5-HT2CR): 750 ± 280 nM | % stimul., 5-HT2C IP-1 formation (5-HT2CR): 37% | functional behavior at 5-HT2CR (5-HT2CR): D3R and 5-HT2CR partial agonists with high and low potency, respectively | EC50 (D4R): 15.3 ± 1.9 nM | % stimul., D4 adenylate cyclase (D4R): 73.1% | functional behavior at D4R (D4R): efficacious 5-HT1AR and D4R agonists with high potency
